# Source: BindingDB's records for doi:10.1021/jm9811054 (Merck, 2000)
# Target: 5-HT1D receptor (Bos taurus)
# Assay: Binding affinity towards 5-hydroxytryptamine 1D receptor in calf striatum using [3H]5-HT as radio-ligand.
row,Structure (SMILES),IC50
1,COc1ccc(NC(=O)N2CCC(c3c[nH]c4ccc(C#N)cc34)CC2)cc1N1CCN(C)CC1 [4-(5-Cyano-1H-indol-3-yl)-piperidine-1-carboxylic acid [4-methoxy-3-(4-methyl-piperazin-1-yl)-phenyl]-amide],400 nM
2,COc1ccc(NC(=O)N2CCN(CCCCc3c[nH]c4ccc(F)cc34)CC2)cc1N1CCN(C)CC1 [4-[4-(5-Fluoro-1H-indol-3-yl)-butyl]-piperazine-1-carboxylic acid [4-methoxy-3-(4-methyl-piperazin-1-yl)-phenyl]-amide],367 nM
3,COc1ccc(NC(=O)NCCN2CCC(c3c[nH]c4cc(F)ccc34)CC2)cc1OCCN(C)C [1-[3-(2-Dimethylamino-ethoxy)-4-methoxy-phenyl]-3-{2-[4-(6-fluoro-1H-indol-3-yl)-piperidin-1-yl]-ethyl}-urea],433 nM
4,"COc1ccc(NC(=O)N2CCc3[nH]c4ccc(F)cc4c3C2)cc1N1CCN(C)CC1 [8-Fluoro-1,3,4,5-tetrahydro-pyrido[4,3-b]indole-2-carboxylic acid [4-methoxy-3-(4-methyl-piperazin-1-yl)-phenyl]-amide]",667 nM

# These reach a lower IC50. Values come first.
row,IC50,Structure (SMILES)
1,200 nM,COc1ccc(NC(=O)N2CCC(c3c[nH]c4cc(F)ccc34)CC2)cc1N1CCN(C)CC1 [4-(6-Fluoro-1H-indol-3-yl)-piperidine-1-carboxylic acid [4-methoxy-3-(4-methyl-piperazin-1-yl)-phenyl]-amide]
2,100 nM,COc1ccc(NC(=O)N2CCC(c3c[nH]c4ccc(C(N)=O)cc34)CC2)cc1N1CCN(C)CC1 [3-{1-[4-Methoxy-3-(4-methyl-piperazin-1-yl)-phenylcarbamoyl]-piperidin-4-yl}-1H-indole-5-carboxylic acid amide]
3,167 nM,COc1ccc(NC(=O)NCCc2c[nH]c3ccc(F)cc23)cc1N1CCN(C)CC1 [1-[2-(5-Fluoro-1H-indol-3-yl)-ethyl]-3-[4-methoxy-3-(4-methyl-piperazin-1-yl)-phenyl]-urea]
